The data set relates to rodent carcinogenicity bioassays, tumor incidence. Kind of data set: CCRIS carcinogenicity studies. Summed up: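 NCI-built, expert-reviewed records of carcinogenicity and related test outcomes (mutagenicity, tumor promotion/inhibition) compiled from published and report sources, historical span 1985-2011, not updated.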

We go through 1 compound from PubChem BioAssay AID1259411 (Chemical Carcinogenesis Research Information System (CCRIS), 2018).

Activity calls are given as the source filed them. No rule for the calls is given here.

In the case of `CC(=O)Nc1ccc2c(c1)Cc1ccccc1-2`, the carcinogen call (Species: DOG, Strain/Sex: BEAGLE, Route: ORAL, Dose: 8.3-10.9 MG/KG/D (AVE DAILY INTAKE) FOR 68.5-91 MO (TOTAL DOSE: 90-198 G), Tumor Site: Type of Lesion: LIVER: CARCINOMA, URINARY BLADDER: PAPILLOMA) is “active; positive”; the carcinogen call (Species: FISH, Strain/Sex: GUPPY/ MALE, FEMALE, Route: IMMERSION, Dose: 0, 1 MG/L IN WELL WATER FOR 1 6 HR EXPOSURE OR FOR 1,2,3 OR 4 12 HR EXPOSURES, MULTIPLE EXPOSURES GIVEN AT WEEKLY INTERV) was “inactive; negative”; the carcinogen call (Species: FISH, Strain/Sex: GUPPY/ MALE, FEMALE, Route: IMMERSION, Dose: 0, 1 MG/L IN WELL WATER FOR 7 D CONTINUOUS EXPOSURE, SOLUTIONS RENEWED EVERY 24 HR (STUDY DURATION: 52 WK), Tumor Site: Type of Lesion: LIVER: TUMOR) is “active; positive”; the carcinogen call (Species: FISH, Strain/Sex: MEDAKA/ MALE, FEMALE, Route: IMMERSION, Dose: 0, 1 MG/L IN WELL WATER FOR 1 6 HR EXPOSURE OR FOR 1,2,3 OR 4 12 HR EXPOSURES, MULTIPLE EXPOSURES GIVEN AT WEEKLY INTERV) is “inactive; negative”; the carcinogen call (Species: FISH, Strain/Sex: MEDAKA/ MALE, FEMALE, Route: IMMERSION, Dose: 0, 1 MG/L IN WELL WATER FOR 7 D CONTINUOUS EXPOSURE, SOLUTIONS RENEWED EVERY 24 HR (STUDY DURATION: 52 WK)) is “inactive; negative”; the carcinogen call (Species: HAMSTER, Strain/Sex: SYRIAN/ MALE, FEMALE, Route: INTRAPERITONEAL, ORAL, Dose: 5 MG/100 G 3/WK FOR 3 WK, THEN 0.06% IN DIET, Tumor Site: Type of Lesion: URINARY BLADDER, LIVER: CHOLANGIOCARCINOMA) was “active; positive”. In addition, the carcinogen call is “active; positive” (Species: HAMSTER, Strain/Sex: SYRIAN/FEMALE, Route: ORAL, Dose: 0.025% IN DIET FOR LIFE, Tumor Site: Type of Lesion: LIVER: INTRAHEPATIC BILE DUCT CARCINOMA); “active; positive” (Species: HAMSTER, Strain/Sex: SYRIAN, Route: ORAL, Dose: 5 MG FOR 22 WK THEN 15 MG FOR 4 WK, THEN 10 MG 2/WK AFTER 42 WK, Tumor Site: Type of Lesion: URINARY BLADDER: CARCINOMA); “active; positive” (Species: MOUSE, Strain/Sex: BALB/C/FEMALE, Route: ORAL, Dose: 0, 75, 100, 150 PPM IN DIET UP TO 33 MO (STUDY DURATION: 33 MO), Dose: 0, 75, 100, 150 PPM IN DIET UP TO 33 MO (STUDY DURATION: 33 MO), Tumor Site: Type of Lesion: LIVER: HEPATOCELLULAR ADENOMA OR CARCINOMA, BLADDER: TRANSITIONAL CELL CARCINOMA); “active; positive” (Species: MOUSE, Strain/Sex: CBA/ MALE, FEMALE, Route: ORAL, Dose: 3 MG/MOUSE 2/WK, Tumor Site: Type of Lesion: MAMMARY GLAND, URINARY BLADDER, LIVER, Tumor Site: Type of Lesion: MAMMARY GLAND, URINARY BLADDER, LIVER); “inactive; negative” (Species: MOUSE, Strain/Sex: EU-PIM-1/FEMALE, Route: GAVAGE, Dose: 0, 25, 100 MG/KG 1/D FOR 38 WK (STUDY DURATION: 38 WK), Dose: 0, 25, 100 MG/KG 1/D FOR 38 WK (STUDY DURATION: 38 WK)); “active; positive” (Species: MOUSE, Strain/Sex: EU-PIM-1/MALE, Route: GAVAGE, Dose: 0, 25, 100 MG/KG 1/D FOR 38 WK (STUDY DURATION: 38 WK), Dose: 0, 25, 100 MG/KG 1/D FOR 38 WK (STUDY DURATION: 38 WK), Tumor Site: Type of Lesion: LYMPHATIC SYSTEM: LYMPHOMA). Moreover, the carcinogen call reads like this: (Species: MOUSE, Strain/Sex: R-III/ MALE, FEMALE, Route: ORAL, Dose: 3 MG/MOUSE 2/WK, Tumor Site: Type of Lesion: URINARY BLADDER, LIVER) “active; positive”; (Species: MOUSE, Strain/Sex: STRAIN-A/ MALE, FEMALE, Route: ORAL, Dose: 3 MG/MOUSE 2/WK, Tumor Site: Type of Lesion: URINARY BLADDER) “active; positive”; (Species: MOUSE, Strain/Sex: STRAIN-IF/ MALE, FEMALE, Route: ORAL, Dose: 3 MG/MOUSE 2/WK, Tumor Site: Type of Lesion: URINARY BLADDER, LIVER, MAMMARY GLAND, Tumor Site: Type of Lesion: URINARY BLADDER, LIVER, MAMMARY GLAND) “active; positive”; (Species: RABBIT, Strain/Sex: NZW/ MALE, FEMALE, Route: ORAL, Dose: 100 MG 2/WK (TOTAL DOSE 21-52 G AS POWDER), Tumor Site: Type of Lesion: URINARY BLADDER: PAPILLOMA, ADENOCARCINOMA, URETER: PAPILLOMA, ADENOCARCINOMA) “active; positive”; (Species: RABBIT, Strain/Sex: NZW/FEMALE, Route: ORAL, Dose: 100 MG IN 1 ML CORN OIL 2/WK FOR LIFE, Tumor Site: Type of Lesion: URINARY BLADDER: TRANSITIONAL CELL TUMOR, KIDNEY: TRANSITIONAL CELL TUMOR) “active; positive”; (Species: RAT, Strain/Sex: AES/FEMALE, Route: ORAL, Dose: 300 MG/KG IN SEMI-PURIFIED OR STOCK DIET, Tumor Site: Type of Lesion: EAR (DUCT): CARCINOMA) “active; positive”. The carcinogen call is “active; positive” (Species: RAT, Strain/Sex: ALBINO/ MALE, FEMALE, Route: ORAL, Dose: 0.036% IN DIET FOR 8 MO, Tumor Site: Type of Lesion: LIVER: HEPATOMA, MAMMARY GLAND, EAR (DUCT), Tumor Site: Type of Lesion: LIVER: HEPATOMA, MAMMARY GLAND, EAR (DUCT)) and “active; positive” (Species: RAT, Strain/Sex: ALBINO/FEMALE, Route: ORAL, Dose: 0.125% IN DIET, Tumor Site: Type of Lesion: URINARY BLADDER: CARCINOMA).
